# Source: patent publication US20240132431A1, “METHOD FOR ALKYLATING ACIDIC FUNCTIONAL GROUP” (Chugai Seiyaku Kabushiki Kaisha, priority 2021, published 2024)
# Biological target: T1, Bcl-2 protein (Recombinant Human Bcl-2 Protein) (Homo sapiens, UniProt P10415)
# T1 construct: purchased Novus NBP2-34889
# Test: Binding evaluation of mixture library compounds to Bcl-2 using AS-MS (affinity selection mass spectrometry)
# Conditions: for ASMS ratio (%) n = 1: replicate n = 1; for ASMS ratio (%) n = 1 / ASMS ratio (%) n = 2: ASMS Ratio(%)=(A−C)/B×100; for ASMS ratio (%) n = 2: replicate n = 2
# In short: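 Bcl-2 binding is scored from LC/MS signal retained with protein through gel-filtration spin columns, normalised to unfiltered and protein-free controls. Incubation: 20 μM protein, […] per compound, 1 h, 23° C.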
# [1] = AS-MS on the mixture of 1200 library compounds
# [2] = AS-MS, mixture of 1200 compounds, Bcl-2
# T1 sequence (P10415 whole entry): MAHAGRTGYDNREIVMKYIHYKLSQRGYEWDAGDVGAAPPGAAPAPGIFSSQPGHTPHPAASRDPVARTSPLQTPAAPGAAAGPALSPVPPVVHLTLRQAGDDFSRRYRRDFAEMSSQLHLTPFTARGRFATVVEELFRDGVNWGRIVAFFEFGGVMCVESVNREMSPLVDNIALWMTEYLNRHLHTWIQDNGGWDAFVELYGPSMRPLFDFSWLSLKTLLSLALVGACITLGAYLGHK
compound,measurement,setting,value
"CCOc1cncc(-c2cc(CN3CCN(c4ccc(C(=O)NS(C)(=O)=O)nn4)CC3)cc(OC(F)(F)F)c2)c1 [B2I090-01, 6-[4-[[3-(5-Ethoxypyridin-3-yl)-5-(trifluoromethoxy)phenyl]methyl]piperazin-1-yl]-N-methylsulfonylpyridazine-3-carboxamide]",ASMS ratio (%),n = 1,0.0%
same,ASMS ratio (%),n = 2,0.0%
"CCOc1cncc(-c2cnn(-c3cc(C(=O)N4CCN(c5ccc(C(=O)NS(=O)(=O)c6ccc(NCCSc7ccccc7)c([N+](=O)[O-])c6)nn5)CC4)cc(C(F)(F)F)c3)c2)c1 [B2Q022-01, 6-[4-[3-[4-(5-Ethoxypyridin-3-yl)pyrazol-1-yl]-5-(trifluoromethyl)benzoyl]piperazin-1-yl]-N-[3-nitro-4-(2-phenylsulfanylethylamino)phenyl]sulfonylpyridazine-3-carboxamide]",ASMS ratio (%) n = 1,"AS-MS, mixture library, Bcl-2",13.8%
same,ASMS ratio (%) n = 2,"AS-MS, mixture library, Bcl-2",23.6%
"CCOc1cccc(C#Cc2cc(C(=O)N3CCN(c4ccc(C(=O)Nc5ccc(OC)cc5)nn4)CC3)cc(C(F)(F)F)c2)c1 [B1O019-01, 6-[4-[3-[2-(3-Ethoxyphenyl)ethynyl]-5-(trifluoromethyl)benzoyl]piperazin-1-yl]-N-(4-methoxyphenyl)pyridazine-3-carboxamide]",ASMS ratio (%) n = 1,[1],0.6%
same,ASMS ratio (%) n = 2,[1],0.2%
"CCOc1cccc(-c2cnn(-c3cc(C(=O)N4CCN(c5ccc(C(=O)NS(=O)(=O)c6ccc(NCCSc7ccccc7)c(C(F)(F)F)c6)nn5)CC4)cc(C(F)(F)F)c3)c2)c1 [B2R021-01, 6-[4-[3-[4-(3-Ethoxyphenyl)pyrazol-1-yl]-5-(trifluoromethyl)benzoyl]piperazin-1-yl]-N-[4-(2-phenylsulfanylethylamino)-3-(trifluoromethyl)phenyl]sulfonylpyridazine-3-carboxamide]",ASMS ratio (%),n = 1,13.0%
same,ASMS ratio (%),n = 2,0.0%
"CCOc1cccc(-c2csc(C(=O)N3CCN(c4ccc(C(=O)NCC(F)(F)F)nn4)CC3)c2)c1 [B1K001-01, 6-[4-[4-(3-Ethoxyphenyl)thiophene-2-carbonyl]piperazin-1-yl]-N-(2,2,2-trifluoroethyl)pyridazine-3-carboxamide]",ASMS ratio (%) n = 1,[2],0.0%
same,ASMS ratio (%) n = 2,[2],0.0%
"CCOc1cncc(-c2cc(OC)c(CN3CCN(c4ccc(C(=O)NCC56CC7CC(CC(C7)C5)C6)nn4)CC3)c(OC)c2)c1 [B1A086-01, N-(1-Adamantylmethyl)-6-[4-[[4-(5-ethoxypyridin-3-yl)-2,6-dimethoxyphenyl]methyl]piperazin-1-yl]pyridazine-3-carboxamide]",ASMS ratio (%) n = 1,[2],0.0%
same,ASMS ratio (%) n = 2,[2],−14.8%
"CCOc1cncc(C#Cc2cncc(C(=O)N3CCN(c4ccc(C(=O)NS(=O)(=O)CC56CC7CC(CC(C7)C5)C6)cc4)CC3)c2)c1 [B2A032-01, N-(1-Adamantylmethylsulfonyl)-4-[4-[5-[2-(5-ethoxypyridin-3-yl)ethynyl]pyridine-3-carbonyl]piperazin-1-yl]benzamide]",ASMS ratio (%) n = 1,"AS-MS, mixture library, Bcl-2",0.0%
same,ASMS ratio (%) n = 2,"AS-MS, mixture library, Bcl-2",0.0%
"CCOc1cncc(C#Cc2cc(C(=O)N3CCN(c4ccc(C(=O)NS(C)(=O)=O)nn4)CC3)cc(C(F)(F)F)c2)c1 [B2I020-01, 6-[4-[3-[2-(5-Ethoxypyridin-3-yl)ethynyl]-5-(trifluoromethyl)benzoyl]piperazin-1-yl]-N-methylsulfonylpyridazine-3-carboxamide]",ASMS ratio (%) n = 1,"AS-MS, mixture library, Bcl-2",0.0%
same,ASMS ratio (%) n = 2,"AS-MS, mixture library, Bcl-2",0.0%
CCOc1cncc(-c2cc(OC)c(CN3CCN(c4ccc(C(=O)NS(=O)(=O)c5ccc(NCCSc6ccccc6)c(C(F)(F)F)c5)nn4)CC3)c(OC)c2)c1 [B2R086-01],ASMS ratio (%),n = 1,0.0%
same,ASMS ratio (%),n = 2,0.0%
"CCOc1cncc(-c2csc(CN3CCN(c4ccc(C(=O)NS(=O)(=O)CC56CC7CC(CC(C7)C5)C6)nn4)CC3)c2)c1 [B2A094-01, N-(1-Adamantylmethylsulfonyl)-6-[4-[[4-(5-ethoxypyridin-3-yl)thiophen-2-yl]methyl]piperazin-1-yl]pyridazine-3-carboxamide]",ASMS ratio (%) n = 1,"AS-MS, mixture library, Bcl-2",0.0%
same,ASMS ratio (%) n = 2,"AS-MS, mixture library, Bcl-2",0.0%
"CCOc1cncc(-c2cc(CN3CCN(c4ccc(C(=O)NS(=O)(=O)c5ccc(NCCSc6ccccc6)c([N+](=O)[O-])c5)cc4)CC3)cc(OCC)c2)c1 [B2Q056-01, 4-[4-[[3-Ethoxy-5-(5-ethoxypyridin-3-yl)phenyl]methyl]piperazin-1-yl]-N-[3-nitro-4-(2-phenylsulfanylethylamino)phenyl]sulfonylbenzamide]",ASMS ratio (%) n = 1,"AS-MS, mixture library, Bcl-2",7.3%
same,ASMS ratio (%) n = 2,"AS-MS, mixture library, Bcl-2",2.8%
"CCOc1cncc(C#Cc2cncc(C(=O)N3CCN(c4ccc(C(=O)NS(=O)(=O)CC56CC7CC(CC(C7)C5)C6)nn4)CC3)c2)c1 [B2A010-01, N-(1-Adamantylmethylsulfonyl)-6-[4-[5-[2-(5-ethoxypyridin-3-yl)ethynyl]pyridine-3-carbonyl]piperazin-1-yl]pyridazine-3-carboxamide]",ASMS ratio (%) n = 1,"AS-MS, mixture library, Bcl-2",0.0%
same,ASMS ratio (%) n = 2,"AS-MS, mixture library, Bcl-2",0.0%
"CCOc1cncc(C#Cc2ccccc2CN2CCN(c3ccc(C(=O)Nc4ccc(OC)cc4)nn3)CC2)c1 [B1O096-01, 6-[4-[[2-[2-(5-Ethoxypyridin-3-yl)ethynyl]phenyl]methyl]piperazin-1-yl]-N-(4-methoxyphenyl)pyridazine-3-carboxamide]",ASMS ratio (%) n = 1,[1],0.0%
same,ASMS ratio (%) n = 2,[1],3.5%
"CCOc1cncc(C#Cc2ccccc2C(=O)N2CCN(c3ccc(C(=O)NS(=O)(=O)CC45CC6CC(CC(C6)C4)C5)nn3)CC2)c1 [B2A008-01, N-(1-Adamantylmethylsulfonyl)-6-[4-[2-[2-(5-ethoxypyridin-3-yl)ethynyl]benzoyl]piperazin-1-yl]pyridazine-3-carboxamide]",ASMS ratio (%) n = 1,"AS-MS, mixture library, Bcl-2",3.1%
same,ASMS ratio (%) n = 2,"AS-MS, mixture library, Bcl-2",7.2%
4-[4-[4-(5-Ethoxypyridin-3-yl)-3-fluorobenzoyl]piperazin-1-yl]-N-propylbenzamide [B1M091-01],ASMS ratio (%) n = 1,[1],0.0%
same,ASMS ratio (%) n = 2,[1],0.0%
"CCOc1cccc(-c2cc(CN3CCN(c4ccc(C(=O)NCC56CC7CC(CC(C7)C5)C6)nn4)CC3)cc(OC(F)(F)F)c2)c1 [B1A089-01, N-(1-Adamantylmethyl)-6-[4-[[3-(3-ethoxyphenyl)-5-(trifluoromethoxy)phenyl]methyl]piperazin-1-yl]pyridazine-3-carboxamide]",ASMS ratio (%) n = 1,[2],0.0%
"CCOc1cncc(-c2ccc(CN3CCN(c4ccc(C(=O)NCC56CC7CC(CC(C7)C5)C6)nn4)CC3)cc2F)c1 [B1A078-01, N-(1-Adamantylmethyl)-6-[4-[[4-(5-ethoxypyridin-3-yl)-3-fluorophenyl]methyl]piperazin-1-yl]pyridazine-3-carboxamide]",ASMS ratio (%) n = 1,[2],4.7%
same,ASMS ratio (%) n = 2,[2],1.2%
"CCOc1cncc(-c2ccc(CN3CCN(c4ccc(C(=O)NS(=O)(=O)CC56CC7CC(CC(C7)C5)C6)cc4)CC3)c(CC)c2)c1 [B2A050-01, N-(1-Adamantylmethylsulfonyl)-4-[4-[[4-(5-ethoxypyridin-3-yl)-2-ethylphenyl]methyl]piperazin-1-yl]benzamide]",ASMS ratio (%) n = 1,"AS-MS, mixture library, Bcl-2",−1.1%
same,ASMS ratio (%) n = 2,"AS-MS, mixture library, Bcl-2",1.6%
"CCOc1cncc(-c2cc(CN3CCN(c4ccc(C(=O)N(C)CC56CC7CC(CC(C7)C5)C6)nn4)CC3)cc(OC(F)(F)F)c2)c1 [B3A090-01, N-(1-Adamantylmethyl)-6-[4-[[3-(5-ethoxypyridin-3-yl)-5-(trifluoromethoxy)phenyl]methyl]piperazin-1-yl]-N-methylpyridazine-3-carboxamide]",ASMS ratio (%) n = 1,[1],5.8%
same,ASMS ratio (%) n = 2,[1],−0.2%
"CCOc1cccc(-c2cc(CN3CCN(c4ccc(C(=O)NS(=O)(=O)CCC(F)(F)F)nn4)CC3)cc(OC(C)C)c2)c1 [B2N083-01, 6-[4-[[3-(3-Ethoxyphenyl)-5-propan-2-yloxyphenyl]methyl]piperazin-1-yl]-N-(3,3,3-trifluoropropylsulfonyl)pyridazine-3-carboxamide]",ASMS ratio (%),n = 1,0.0%
same,ASMS ratio (%),n = 2,0.0%
"CCOc1cccc(-c2ccc(C(=O)N3CCN(c4ccc(C(=O)NCC56CC7CC(CC(C7)C5)C6)cc4)CC3)c3ccccc23)c1 [B1A035-01, N-(1-Adamantylmethyl)-4-[4-[4-(3-ethoxyphenyl)naphthalene-1-carbonyl]piperazin-1-yl]benzamide]",ASMS ratio (%) n = 1,[2],14.9%
same,ASMS ratio (%) n = 2,[2],−7.0%
"CCOc1cccc(-c2cc(C(=O)N3CCN(c4ccc(C(=O)NS(=O)(=O)c5ccc(NCCSc6ccccc6)c([N+](=O)[O-])c5)cc4)CC3)cc(C(F)(F)F)c2)c1 [B2Q039-01, 4-[4-[3-(3-Ethoxyphenyl)-5-(trifluoromethyl)benzoyl]piperazin-1-yl]-N-[3-nitro-4-(2-phenylsulfanylethylamino)phenyl]sulfonylbenzamide]",ASMS ratio (%) n = 1,"AS-MS, mixture library, Bcl-2",7.2%
same,ASMS ratio (%) n = 2,"AS-MS, mixture library, Bcl-2",4.6%
"CCOc1cccc(-c2ccccc2CN2CCN(c3ccc(C(=O)NS(=O)(=O)CCC(F)(F)F)nn3)CC2)c1 [B2N071-01, 6-[4-[[2-(3-Ethoxyphenyl)phenyl]methyl]piperazin-1-yl]-N-(3,3,3-trifluoropropylsulfonyl)pyridazine-3-carboxamide]",ASMS ratio (%),n = 1,0.0%
same,ASMS ratio (%),n = 2,0.0%
"CCOc1cccc(-c2ccc(C(=O)N3CCN(c4ccc(C(=O)NCC(F)(F)F)cc4)CC3)c3ccccc23)c1 [B1K035-01, 4-[4-[4-(3-Ethoxyphenyl)naphthalene-1-carbonyl]piperazin-1-yl]-N-(2,2,2-trifluoroethyl)benzamide]",ASMS ratio (%) n = 1,[2],4.8%
same,ASMS ratio (%) n = 2,[2],4.5%
